US12286437B2, “Cardiac sarcomere inhibitors” (Cytokinetics, Inc., priority 2021, dated 2025)

Experiments:
CYP2D6 = target: T1, CYP2D6 (Homo sapiens, UniProt P10635); test: Time-dependent inhibition of CYP2D6 in human liver microsomes; type: in vitro ADME; settings: for (% Activity NADPH T0)/(% Activity NADPH T30): fold change; for activity at 30 min, 25 µM / activity at 0 min, 25 µM / activity at 30 min, 50 µM / activity at 0 min, 50 µM: pooled human liver microsomes, human liver microsomes; for activity at 30 min, 25 µM / activity at 30 min, 50 µM: after 30 minutes incubation, read-out: % Activity NADPH T30; for activity at 0 min, 25 µM / activity at 0 min, 50 µM: time zero, read-out: % Activity NADPH T0
T1 construct: Pooled human microsomes and selective CYP probe substrates were used; from tissue; host or cells: pooled human liver microsomes
Protocol: (§1) An assessment of the time-dependent Inhibitory Potential of the test compounds against Principal Human Cytochrome P450 Isozymes using Human Liver Microsomes was also carried out using standard methods (Grimm et al, Drug Metab. Dispos., July; 37(7):1355-70. doi: 10.1124/dmd.109.026716, 2009). Pooled human microsomes and selective CYP probe substrates were used for in vitro assessment of test compounds at 25 and 50 μM as time-dependent inhibitors of […] human hepatic cytochrome P450 isozymes (CYP1A2, 2B6, 2C9, 2C19, 2D6, and 3A4). LC-MS/MS was used to quantify metabolite formation. The inhibition of each P450 enzyme in human liver microsomes was measured as the percentage decrease in the activity of marker metabolite formation as measured by LC-MS/MS compared to non-inhibited controls (=100% activity) at time zero and after 30 minutes incubation. The occurrence of any time dependent inhibition was then expressed as the fold change in enzyme activity at time zero relative to the activity after 30 minutes incubation.

[1] = Monkey cassette dosing pharmacokinetics; type: in vivo; settings: IV; for clearance / Vd: male, plasma; for Vd: read-out: Vss
CYP2C9 = target: T2, CYP2C9 (Homo sapiens, UniProt P11712); test: Time-dependent inhibition of CYP2C9 in human liver microsomes; type: in vitro ADME; settings: for (% Activity NADPH T0)/(% Activity NADPH T30): fold change; for activity at 30 min, 25 µM / activity at 0 min, 25 µM / activity at 30 min, 50 µM / activity at 0 min, 50 µM: pooled human liver microsomes, human liver microsomes; for activity at 30 min, 25 µM / activity at 30 min, 50 µM: after 30 minutes incubation, read-out: % Activity NADPH T30; for activity at 0 min, 25 µM / activity at 0 min, 50 µM: time zero, read-out: % Activity NADPH T0
T2 construct: Pooled human microsomes and selective CYP probe substrates were used; from tissue; host or cells: pooled human liver microsomes
Protocol: as §1

[2] = system: bovine cardiac myofibrils; test: Myofibril assay (ATPase activity of skinned bovine cardiac myofibrils, PK/LDH-coupled); type: biochemical; settings: inhibition of steady-state ATPase of bovine cardiac myofibrils; CaCl2 for 50% or 75% activation
Method in brief: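 Steady-state ATPase of detergent-skinned bovine left-ventricular myofibrils (1 mg/mL), PK/LDH-coupled NADH read at 340 nm, in PIPES/MgCl2 buffer pH 6.8 with 50 μM ATP, 0.6 mM EGTA and CaCl2 set for 50% or 75% activation. Inhibition of activity measured.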

CYP2C19 = target: T3, CYP2C19 (Homo sapiens, UniProt P33261); test: Time-dependent inhibition of CYP2C19 in human liver microsomes; type: in vitro ADME; settings: for (% Activity NADPH T0)/(% Activity NADPH T30): fold change; for activity at 30 min, 25 µM / activity at 0 min, 25 µM / activity at 30 min, 50 µM / activity at 0 min, 50 µM: pooled human liver microsomes, human liver microsomes; for activity at 30 min, 25 µM / activity at 30 min, 50 µM: after 30 minutes incubation, read-out: % Activity NADPH T30; for activity at 0 min, 25 µM / activity at 0 min, 50 µM: time zero, read-out: % Activity NADPH T0
T3 construct: Pooled human microsomes and selective CYP probe substrates were used; from tissue; host or cells: pooled human liver microsomes
Protocol: as §1

[3] = Dog cassette dosing pharmacokinetics; type: in vivo, beagle dogs; settings: male, beagle, plasma, IV; for Vd: read-out: Vss; for half-life: read-out: t½ (converted)
Protocol: Non-naïve male beagle dogs (8 months to 3 years of age, body weight 8-14 kg) sourced from Jiangsu Johnsen Bioresource CO. and/or Beijing Rixinkeji CO., LTD and/or Beijing Marshall Biotechnology CO., LTD were used in this study. All animals for IV administration had free access to food and water. The IV dose solution was prepared in 10% DMA/50% PG/40% HPβCD solution (40% w/v aqueous HPβCD) at a concentration of 0.2 mg/mL. Concentrations of IV dose was measured at the end of the study. PK parameters were calculated using the nominal dose values if the measured values were within 20% of the nominal values. Blood samples were collected by venipuncture of peripheral veins except the dosing vein at pre-dose, 5 15, 30 min, 1, 2, 4, 6, 8 and 24 h post-dose. Blood samples were centrifuged and resultant plasma was frozen for bioanalysis. Plasma samples were stored at −80° C. before analysis. Plasma samples were analyzed for compound concentrations using the LC/MS/MS method. Briefly, a 50 μL aliquot of each plasma sample was mixed with 100 μL of acetonitrile that contained an internal standard. The mixture was vortexed and centrifuged. Ten (10) μL of the resulting solution was injected onto a reverse-phase C18 column and the resultant peaks detected on a LC/MS/MS equipped with a turbo ionspray ionization source. Sample concentrations below the limit of quantification (BLQ) were treated as zero for PK calculations. PK parameters were estimated from individual animals using noncompartmental analysis of the concentration-time data (Phoenix WinNonLin software, version 64; Pharsight, Mountain View, CA). The elimination rate constant (k) was calculated as the absolute value of the slope of the linear regression of logarithm (log) of the concentration versus time for the last three data points of the concentration-time profiles. Apparent elimination half-life (t1/2) values were calculated as ln(2)/k. Area under the concentration-time curve (AUC) values were estimated using linear trapezoidal method. AUCt values were calculated from the dosing time to the last measurable concentration. AUC∞ values were calculated as the sum of the corresponding AUCt and the ratio of the last detectable concentration divided by k. Plasma clearance (CL) was calculated from Dose/AUC∞. Mean resident time extrapolated to infinity (MRT∞) was estimated by moment analysis. Vss was calculated from MRT∞×CL. Maximum concentration (Cmax) and time to reach Cmax (tmax) were recorded as observed. As this was a cross-over study, bioavailability was calculated dAUC∞,po/dAUC∞,iv×100% where dAUC was the dose normalized AUC value from the same animal given IV and PO dose. Data for compounds tested are provided in Table G. Compounds tested were prepared in accordance with the synthetic procedures described herein.

T1 sequence (P10635 whole entry): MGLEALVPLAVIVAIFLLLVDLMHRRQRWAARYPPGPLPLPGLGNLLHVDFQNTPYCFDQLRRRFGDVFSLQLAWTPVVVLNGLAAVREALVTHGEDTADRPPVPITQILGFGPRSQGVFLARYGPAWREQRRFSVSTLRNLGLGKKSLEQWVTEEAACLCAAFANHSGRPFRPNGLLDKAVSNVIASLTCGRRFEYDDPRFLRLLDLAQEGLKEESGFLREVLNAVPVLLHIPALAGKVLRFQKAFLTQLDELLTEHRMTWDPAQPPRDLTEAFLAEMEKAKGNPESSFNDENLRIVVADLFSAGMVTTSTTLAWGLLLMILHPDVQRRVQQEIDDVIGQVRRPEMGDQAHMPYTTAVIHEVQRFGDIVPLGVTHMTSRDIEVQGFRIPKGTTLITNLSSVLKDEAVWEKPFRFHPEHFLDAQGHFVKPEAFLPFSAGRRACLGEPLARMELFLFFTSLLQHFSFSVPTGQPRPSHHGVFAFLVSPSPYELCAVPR
T2 sequence (P11712 whole entry): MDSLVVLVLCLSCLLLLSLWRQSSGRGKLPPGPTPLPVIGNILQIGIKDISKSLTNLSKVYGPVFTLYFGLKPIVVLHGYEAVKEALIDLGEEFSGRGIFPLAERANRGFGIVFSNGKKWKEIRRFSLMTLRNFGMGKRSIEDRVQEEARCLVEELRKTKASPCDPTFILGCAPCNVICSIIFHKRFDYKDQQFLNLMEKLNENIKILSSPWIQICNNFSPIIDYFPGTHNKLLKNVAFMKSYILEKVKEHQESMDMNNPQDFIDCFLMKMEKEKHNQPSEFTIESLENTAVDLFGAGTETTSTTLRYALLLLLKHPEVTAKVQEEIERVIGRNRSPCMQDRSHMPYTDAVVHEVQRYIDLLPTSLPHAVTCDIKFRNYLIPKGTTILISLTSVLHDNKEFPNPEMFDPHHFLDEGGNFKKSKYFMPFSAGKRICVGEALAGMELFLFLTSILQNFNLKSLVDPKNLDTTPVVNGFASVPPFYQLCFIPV
T3 sequence (P33261 whole entry): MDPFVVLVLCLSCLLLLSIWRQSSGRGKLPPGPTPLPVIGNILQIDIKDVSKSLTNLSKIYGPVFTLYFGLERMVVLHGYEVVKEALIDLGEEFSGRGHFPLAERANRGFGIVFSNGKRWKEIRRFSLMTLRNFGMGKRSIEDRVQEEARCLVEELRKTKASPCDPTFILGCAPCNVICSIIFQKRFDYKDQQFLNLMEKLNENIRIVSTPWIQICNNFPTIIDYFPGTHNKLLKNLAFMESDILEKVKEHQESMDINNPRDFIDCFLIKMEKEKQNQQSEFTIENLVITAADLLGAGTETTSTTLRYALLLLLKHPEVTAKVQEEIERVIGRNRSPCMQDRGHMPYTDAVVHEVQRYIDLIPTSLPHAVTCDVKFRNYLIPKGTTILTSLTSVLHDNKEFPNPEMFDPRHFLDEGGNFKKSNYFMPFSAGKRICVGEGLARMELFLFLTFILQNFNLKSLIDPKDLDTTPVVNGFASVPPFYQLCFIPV

| Compound | (% Activity NADPH T0)/(% Activity NADPH T30) (CYP2D6; CYP2D6, 25 μM) | (% Activity NADPH T0)/(% Activity NADPH T30) (CYP2D6; CYP2D6, 50 μM) | t l/2 [1] [h] | (% Activity NADPH T0)/(% Activity NADPH T30) (CYP2C9; CYP2C9, 25 μM) | (% Activity NADPH T0)/(% Activity NADPH T30) (CYP2C9; CYP2C9, 50 μM) | CDMF IC15 [2] [µM] | (% Activity NADPH T0)/(% Activity NADPH T30) (CYP2C19; CYP2C19, 25 μM) | (% Activity NADPH T0)/(% Activity NADPH T30) (CYP2C19; CYP2C19, 50 μM) | activity at 30 min, 25 µM (CYP2D6; CYP2D6, 25 μM) [%] | activity at 0 min, 25 µM (CYP2D6; CYP2D6, 25 μM) [%] | activity at 30 min, 50 µM (CYP2D6; CYP2D6, 50 μM) [%] | activity at 0 min, 50 µM (CYP2D6; CYP2D6, 50 μM) [%] | clearance [1] [mL/min/kg] | Vd [1] [L/kg] | activity at 30 min, 25 µM (CYP2C9; CYP2C9, 25 μM) [%] | activity at 0 min, 25 µM (CYP2C9; CYP2C9, 25 μM) [%] | activity at 30 min, 50 µM (CYP2C9; CYP2C9, 50 μM) [%] | activity at 0 min, 50 µM (CYP2C9; CYP2C9, 50 μM) [%] | clearance [3] [mL/min/kg] | Vd [3] [L/kg] | also measured |
| --- | --- | --- | --- | --- | --- | --- | --- | --- | --- | --- | --- | --- | --- | --- | --- | --- | --- | --- | --- | --- | --- |
| C[C@H]1CC[C@H](N2CC(=O)N(Cc3ccc(F)c(F)c3)C3(CN(C=O)C3)C2=O)CC1 [Compound 4, 5-(3,4-difluorobenzyl)-8-((1r,4r)-4-methylcyclohexyl)-6,9-dioxo-2,5,8-triazaspiro[3.5]nonane-2-carbaldehyde] | 1.3 | 1.1 | 8.69 | 1.0 | 0.9 | 1.5 | 1.4 | 1.1 | – | – | – | – | – | – | – | – | – | – | – | – | (% Activity NADPH T0)/(% Activity NADPH T30) (CYP2D6; CYP2D6, 50 μM, listed as compound 4): no change in activity; (% Activity NADPH T0)/(% Activity NADPH T30) (CYP2C19; CYP2C19, 50 μM, listed as compound 4): no change in activity |
| C[C@H]1CC[C@H](N2CC(=O)N(Cc3ccc(F)c(F)c3)C3(CN(C(N)=O)C3)C2=O)CC1 [Compound 5, 5-(3,4-difluorobenzyl)-8-((1r,4r)-4-methylcyclohexyl)-6,9-dioxo-2,5,8-triazaspiro[3.5]nonane-2-carboxamide] | 1.1 | 1.1 | 8.2 | 0.8 | 1.0 | 1.3 | 1.2 | 1.3 | 89 | 98 | 84 | 94 | 19 | 10.2 | 79 | 62 | 64 | 62 | 9.26 | 6.17 | half-life [3]: 9.86 h; activity at 30 min, 25 µM (CYP2C19; CYP2C19, 25 μM): 83%; activity at 0 min, 25 µM (CYP2C19; CYP2C19, 25 μM): 101%; activity at 30 min, 50 µM (CYP2C19; CYP2C19, 50 μM): 77%; activity at 0 min, 50 µM (CYP2C19; CYP2C19, 50 μM): 102% |
| Cc1cc(CN2C(=O)CN([C@H]3CC[C@H](C)CC3)C(=O)C23CN(C(N)=O)C3)ccc1F [Compound 6, 5-(4-fluoro-3-methylbenzyl)-8-((1r,4r)-4-methylcyclohexyl)-6,9-dioxo-2,5,8-triazaspiro[3.5]nonane-2-carboxamide] | 1.3 | 1.2 | 8.07 | 1.2 | 1.0 | 1.4 | 1.2 | 1.1 | 87 | 112 | 92 | 107 | 12.3 | 6.29 | 41 | 48 | 33 | 34 | 9.08 | 3.98 | (% Activity NADPH T0)/(% Activity NADPH T30) (CYP2D6; CYP2D6, 50 μM, listed as compound 6): no change in activity; half-life [3]: 7.11 h; activity at 30 min, 25 µM (CYP2C19; CYP2C19, 25 μM): 89%; activity at 0 min, 25 µM (CYP2C19; CYP2C19, 25 μM): 105%; activity at 30 min, 50 µM (CYP2C19; CYP2C19, 50 μM): 92%; activity at 0 min, 50 µM (CYP2C19; CYP2C19, 50 μM): 100% |
| C[C@H]1CC[C@H](N2CC(=O)N(Cc3ccc(F)c(Cl)c3)C3(CN(C(N)=O)C3)C2=O)CC1 [Compound 7, 5-(3-chloro-4-fluorobenzyl)-8-((1r,4r)-4-methylcyclohexyl)-6,9-dioxo-2,5,8-triazaspiro[3.5]nonane-2-carboxamide] | 0.9 | 0.9 | 12.5 | 1.3 | 1.4 | 0.8 | 1.0 | 1.0 | 88 | 80 | 95 | 87 | 10.2 | 9.12 | 75 | 94 | 61 | 87 | 9.22 | 6.33 | (% Activity NADPH T0)/(% Activity NADPH T30) (CYP2C9; CYP2C9, 50 μM, listed as compound 7): 1.3; half-life [3]: 10.9 h; activity at 30 min, 25 µM (CYP2C19; CYP2C19, 25 μM): 87%; activity at 0 min, 25 µM (CYP2C19; CYP2C19, 25 μM): 87%; activity at 30 min, 50 µM (CYP2C19; CYP2C19, 50 μM): 83%; activity at 0 min, 50 µM (CYP2C19; CYP2C19, 50 μM): 82% |
